The text below walks through data of patent US8466167B2, “Compounds and compositions as TLR activity modulators” (IRM LLC, priority 2008, dated 2013).

Where two headings read alike, the source gives them in different places.

In one assay the target is T1, human TLR7 (Homo sapiens, UniProt Q9NYK1).
T1 construct: expressed in transfected cells; host or cells: HEK 293
T1 sequence (Q9NYK1 27-1049): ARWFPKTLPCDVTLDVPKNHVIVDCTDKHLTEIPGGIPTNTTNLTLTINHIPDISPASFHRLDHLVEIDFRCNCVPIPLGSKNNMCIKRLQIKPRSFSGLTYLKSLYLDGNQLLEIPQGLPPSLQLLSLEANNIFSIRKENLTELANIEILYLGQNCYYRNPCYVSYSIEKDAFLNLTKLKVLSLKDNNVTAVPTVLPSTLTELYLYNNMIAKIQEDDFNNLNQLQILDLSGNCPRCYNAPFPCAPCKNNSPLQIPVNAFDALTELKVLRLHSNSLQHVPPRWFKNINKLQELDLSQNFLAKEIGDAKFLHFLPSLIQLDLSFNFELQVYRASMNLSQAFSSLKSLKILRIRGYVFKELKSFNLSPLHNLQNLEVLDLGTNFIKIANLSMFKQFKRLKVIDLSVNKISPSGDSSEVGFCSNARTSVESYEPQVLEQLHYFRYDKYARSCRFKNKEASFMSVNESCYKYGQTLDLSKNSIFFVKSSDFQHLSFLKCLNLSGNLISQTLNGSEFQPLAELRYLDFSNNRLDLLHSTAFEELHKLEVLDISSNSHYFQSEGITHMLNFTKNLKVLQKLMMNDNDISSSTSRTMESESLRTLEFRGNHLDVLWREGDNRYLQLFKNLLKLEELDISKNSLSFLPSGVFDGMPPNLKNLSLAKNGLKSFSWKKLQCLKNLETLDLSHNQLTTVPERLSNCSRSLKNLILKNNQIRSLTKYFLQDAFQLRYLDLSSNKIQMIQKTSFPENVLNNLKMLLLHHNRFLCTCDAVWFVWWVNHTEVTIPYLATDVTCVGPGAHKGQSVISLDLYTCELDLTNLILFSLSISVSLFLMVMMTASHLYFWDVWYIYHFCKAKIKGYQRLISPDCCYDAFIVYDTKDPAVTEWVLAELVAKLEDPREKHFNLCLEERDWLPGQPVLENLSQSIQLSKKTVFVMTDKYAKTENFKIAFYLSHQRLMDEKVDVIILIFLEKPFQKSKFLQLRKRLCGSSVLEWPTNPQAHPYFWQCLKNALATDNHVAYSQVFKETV
Description: Reporter gene assay, HEK293-TLR7 (NF-kB-driven luciferase). It counts as cell-based. The method, then:
(§1) Human embryonic kidney 293 (HEK 293) cells are stably transfected with human TLR7 or TLR8 and an NF-kB-driven luciferase reporter vector (pNifty-Luciferase). As a control assay, normal Hek293 transfected with pNifty-Luc are used. Cells are cultured in DMEM supplemented with 2 mM L-glutamine, 10% heart inactivated FBS, 1% penicillin and streptomycin, 2 μg/ml puromycin (InvivoGen #ant-pr-5) and 5 μg/ml of blasticidin (Invitrogen #46-1120). Bright-Glo™ Luciferase assay buffer and substrate are supplied by Promega #E263B and #E264B (assay substrate and buffer respectively). 384 well clear-bottom plates are supplied by Greiner bio-one (#789163-G) and are GNF custom bar-coded plates.
(§2) Cells are plated at 25,000 cells/well in 384-well plates in a final volume of 50 μl of media. Cells are allowed to adhere to the plates after overnight (18 hours) culture at 37° C. 5% CO2. Serially diluted experimental and positive control compounds are then dispensed to each well and incubated for 7 hours at 37° C. 5% CO2. Cells stimulated with DMSO alone also serve as negative controls. After the incubation, 30 μl of the pre-mix assay buffer and substrate buffer are added to each well according to manufacturer's instructions. The luminescence signal is read on a CLIPR machine with an integration time of 20 seconds per plate.
(§3) Dose response curves are generated for each compound and EC50 values were determined as the concentration that gives 50% of the maximal signal.
In general terms: A reporter such as luciferase makes a cellular process visible.

The next assay concerns the target T2, human TLR8 (Homo sapiens, UniProt Q9NR97).
T2 construct: expressed in transfected cells; host or cells: HEK 293
T2 sequence (Q9NR97 27-1041): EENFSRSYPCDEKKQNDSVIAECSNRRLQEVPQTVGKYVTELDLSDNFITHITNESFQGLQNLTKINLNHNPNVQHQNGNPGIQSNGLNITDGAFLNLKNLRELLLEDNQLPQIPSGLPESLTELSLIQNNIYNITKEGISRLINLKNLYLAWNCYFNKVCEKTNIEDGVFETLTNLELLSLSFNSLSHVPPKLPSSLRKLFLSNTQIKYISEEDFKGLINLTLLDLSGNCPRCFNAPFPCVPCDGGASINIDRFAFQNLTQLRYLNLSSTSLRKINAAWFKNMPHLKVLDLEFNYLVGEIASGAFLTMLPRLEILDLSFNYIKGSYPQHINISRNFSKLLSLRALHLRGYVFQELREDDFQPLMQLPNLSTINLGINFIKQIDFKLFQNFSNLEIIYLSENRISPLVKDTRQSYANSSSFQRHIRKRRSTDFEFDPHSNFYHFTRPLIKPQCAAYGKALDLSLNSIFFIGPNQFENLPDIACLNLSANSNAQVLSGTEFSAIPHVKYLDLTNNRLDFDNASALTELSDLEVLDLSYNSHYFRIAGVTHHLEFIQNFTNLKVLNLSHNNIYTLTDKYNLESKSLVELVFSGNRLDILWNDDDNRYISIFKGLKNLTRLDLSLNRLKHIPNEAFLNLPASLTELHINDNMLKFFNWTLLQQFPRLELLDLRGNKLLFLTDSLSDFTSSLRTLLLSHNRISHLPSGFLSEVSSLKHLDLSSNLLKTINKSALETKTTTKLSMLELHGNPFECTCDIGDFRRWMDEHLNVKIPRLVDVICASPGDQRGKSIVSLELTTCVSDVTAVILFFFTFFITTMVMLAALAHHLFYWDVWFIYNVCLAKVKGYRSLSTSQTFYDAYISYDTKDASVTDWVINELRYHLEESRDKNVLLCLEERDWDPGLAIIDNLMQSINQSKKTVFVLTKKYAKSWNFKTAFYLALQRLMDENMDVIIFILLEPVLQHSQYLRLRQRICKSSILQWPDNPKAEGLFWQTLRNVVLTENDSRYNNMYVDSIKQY
Description: Reporter gene assay, HEK293-TLR8 (NF-kB-driven luciferase). It counts as cell-based. The settings on record: HEK293-TLR8; read-out: EC50 in HEK293-TLR8 assay. How it is done: as §1, §2, §3

For a further assay, the system named is human PBMC. Description: Human peripheral blood mononuclear cell assay, IL-6 (IL-6 hPBMC). It counts as cell-based. The settings on record: IL-6 levels. How it is done:
The bioactivity of the described compounds are tested in the human peripheral blood assay (human PBMC) using a panel of independent normal human donors according to approved guidelines by the institutional review committee. Human PBMC are isolated from freshly peripheral blood using a Ficoll density gradient (GE healthcare 17-1440-03). 30-35 mLs of peripheral human blood are layered onto 15 mLs of Ficoll in 50 ml conical tubes, followed by centrifugation at 1800 rpm (Eppendorf Centrifuge 5810R with biohazard caps over the tube buckets) at room temperature for 30 minutes with no acceleration and no brake. The buffy layers are then collected and transferred onto new 50 ml conical tubes and washed twice in complete media consisting of RAMI 1640 (11875085 from Invitrogen Corporation, Carlsbad, Calif.) supplemented with 10% heat inactivated fetal bovine serum (Gibco 10099-141), 1% Pen-Strep (Gibco#15140-122), 1 mM non essential amino acids (Gibco#11140-050), 1 mM sodium pyruvate (Gibco#11360-070), 2 mM L-Glutamine (Gibco#25030-081) and 1 mM HEPES (Gibco#15630-080). Viable cells are then counted using trypan blue staining, plated in 96 well flat bottom plates (Becton Dickinson #353070) at 2×10^5 cells per well in 200 μl total volume of complete media. Compounds are then added in a 10 point dose response format starting at 100 μM, 3 fold dilution. Negative controls wells received equal concentration of DMSO. Culture supernatants are collected after 18-24 hours incubation at 37° C., 5% CO2, stored at −20° C. until further use.
IL-6 levels in the culture supernatants are measured using a Luminex kit (Biorad). Data analysis is performed using Prism software from GraphPad (San Diego, Calif.). Dose response curves are generated for each compound and EC50 values are determined as the concentration that gives 50% of the maximal signal.

Assay [1] has as its system N. meningitidis serogroup B strain NZ98. The assay can be described thus: In vivo enhancement of immune response to 3MenB vaccine, serum bactericidal antibody (SBA) titer. The settings on record: for protective response in the mice (SBA titer of >1000 correlates with protection): 100 μg compound with 3MenB/MF59, NZ98 strain. How it is done: In a second experiment, the dose response of one compound, Example No. 47, was tested using the same protocol. […] The SBA titers were measured in all cases using the standard CFU method. The dose of each compound in μg is indicated on the left of FIG. 2.
FIG. 5 summarizes the data from the six total experiments. A titer of >1000 correlates with immunization providing protection against the pathogen tested in the SBA titer (i.e., the NZ/98 N. meningitidis serogroup B strain).

The mark [2] stands for this setting: HEK293-TLR7, read-out: EC50 in HEK293-TLR7 assay.

What is called EC50 is the concentration that produces a half-maximal response.

In the case of `Nc1nc2ccccc2c2cccnc12` [Example 1, Benzo[f][1,7]naphthyridin-5-amine], the EC50 on human TLR7 (setting [2]) was > 100 µM; on human TLR8, 14 µM; in the assay on human PBMC it was 0.84 µM.
The corresponding values for `Cc1ccc2c(c1)nc(N)c1ncccc12` [Example 5, 8-methylbenzo[f][1,7]naphthyridin-5-amine] are 15.8 µM, 9.01 µM and 0.396 µM.
Take `Nc1nc2cc(F)ccc2c2cccnc12` [Example 14, 8-fluorobenzo[f][1,7]naphthyridin-5-amine]: the EC50 on human TLR8 was 37 µM; with human PBMC, 6.38 µM.
With `CCc1cnc2c(N)nc3ccccc3c2c1` [Example 30, 2-ethylbenzo[f][1,7]naphthyridin-5-amine], the EC50 at human TLR7 (setting [2]) was determined as 8.64 µM; at human TLR8 it was 13 µM; in the assay with human PBMC it was 2.28 µM.
Consider `Nc1nc2ccccc2c2cc(CCc3ccccc3)cnc12` [Example 33, 2-phenethylbenzo[f][1,7]naphthyridin-5-amine], for which the EC50 on human TLR7 (setting [2]) came out at 2.44 µM; in the assay on human PBMC, 2.28 µM.
Consider `Cc1ccc(CCc2cnc3c(N)nc4ccccc4c3c2)c(C)c1` [Example 47, 2-(2,4-dimethylphenethyl)benzo[f][1,7]naphthyridin-5-amine], for which the EC50 on human TLR7 (TLR-7 stimulation, read-out: Human TLR-7 EC50) was 0.361 µM. Also, the “protective response in the mice (SBA titer of >1000 correlates with protection)” value in assay [1] is recorded as “protective response”. Further, in assay [1] (mice, by p-value), the “difference in SBA titer, immunization with a CpG oligo versus the compound” value is recorded as “did not produce a statistically significant difference”.
Regarding `COc1ccc(CCc2cnc3c(N)nc4cc(C)ccc4c3c2)c(C)c1` [Example 49, 2-(4-methoxy-2-methylphenethyl)-8-methylbenzo[f][1,7]naphthyridin-5-amine], the “protective response in the mice (SBA titer of >1000 correlates with protection)” value in assay [1] was “protective response”.
Same read-out and setting: with `Cc1ccc2c(c1)nc(N)c1ncc(CCc3ccc(N(C)C)cc3)cc12` [Example 169, 2-(4-(dimethylamino)phenethyl)-8-methylbenzo[f][1,7]naphthyridin-5-amine] the entry was “protective response”.
